# Where a name gives a salt, the structure may show the parent alone.
# Key:
# hSTING(H232) = hSTING(H232) (Homo sapiens, UniProt Q86WV6); test: Luciferase reporter assay in HEK293T-hSTING-Luciferase cells, H232/REF polymorph; type: cell-based; conditions: H232/REF polymorph of human STING, EC50 range class
# Source text: (§1) Stable Cell Line Generation • a) Stable STING expressing cells—Stable HEK293T STING-expressing cell lines were generated using plasmids purchased from Invivogen, CA, USA, that contain STING cDNA cloned into the pUNO-1 vector under hEF1-HTLV promoter and containing the Blasticidin selection cassette. The plasmids hSTING(R232), hSTING(H232), hSTING(HAQ) were directly procured from Invivogen while hSTING (AQ) and hSTING (Q) were derived from hSTING(HAQ) and hSTING (R232) plasmids respectively by using a PCR based site directed mutagenesis method. These vectors were individually transfected into HEK293T cells using Lipofectamine (Invitrogen) and transfected cells were selected under Blasticidin selection. These transfected cells were further subjected to clonal selection using the limiting dilution method to obtain clonally pure populations of HEK cells transfected with each of the above mentioned human STING variants. Only those clones were selected in which ligand independent activation of STING was minimal. • b) Stable Luciferase reporter gene expressing cells—Stable HEK293T Luciferase reporter gene expressing cell lines were generated using pCDNA4 plasmids under an IRF-inducible promoter. This promoter is comprised of five tandem interferon-stimulated response elements (ISRE) fused to an ISG54 minimal promoter. This vector was transfected into HEK293T cells using Lipofectamine (Invitrogen) and transfected cells were selected under Zeocin selection. These transfected cells were further subjected to clonal selection using the limiting dilution method to obtain clonally pure populations of HEK cells transfected the Luciferase reporter construct. Only those clones were selected in which ligand independent induction of luciferase was minimal.
# (§2) 5×10^5 clonally selected HEK293T-hSTING-Luciferase cells were seeded in 384-well plates in growth medium and stimulated with novel compounds. After 20 hr of stimulation supernatant were removed and secretary reporter gene activity were measured using the Quanti-Luc detection system (Invivogen) on a Spectramax i3X luminometer.
# (§3) In the tables below, EC50 value ranges for exemplary compounds are given.
# (§4) Single nucleotide polymorphisms of human STING have been described, which can affect the functional potency of compounds that modulate the activity of the STING protein (see Yi et. al., PLoS One, October 2013, 8(10), e77846). The 5 major polymorphisms of human STING are shown in FIG. 1, with their prevalence in human populations indicated.
# (§5) The tables below show the potency of selected compounds of the invention against the most common polymorphisms.
# [1] = target: cynomolgus monkey STING protein (Macaca fascicularis, UniProt A0A2R3XZA6); test: Luciferase reporter assay, cynomolgus monkey STING overexpressed in HEK293T cells; type: cell-based; conditions: cynomolgus monkey STING overexpressed in HEK293T cells; read-out: Cynomolgus monkey STING activity (EC50 range)
# Procedure, shortened: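 HEK293T cells overexpressing cynomolgus STING with a secreted luciferase reporter were stimulated with compound for 20 hr. Supernatant reporter activity was then measured by Quanti-Luc luminescence, and EC50 values were derived.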
# IRF pathway = test: Reporter gene expression assay in THP1-Dual cells, IRF axis (secreted Lucia luciferase); type: cell-based, human; conditions: Homo sapiens, 20 hr stimulation, EC50 range class, read-out: THP-IRF activity
# Method: (§6) THP1-Dual™ cells (Invivogen) were derived from the human THP-1 monocyte cell line by stable integration of two inducible reporter constructs. As a result, THP1-Dual™ cells allow the simultaneous study of the NF-κB pathway, by monitoring the activity of secreted SEAP, and the IRF pathway, by assessing the activity of a secreted luciferase (Lucia). 5×10^5 THP1-Dual™ cells were seeded in 384-well plates in growth medium and stimulated with novel compounds. After 20 hr of stimulation supernatants were removed and reporter proteins were readily measured in the cell culture supernatant using QUANTI-Blue™ (Invivogen), a SEAP detection reagent, and QUANTI-Luc™ (Invivogen), a luciferase detection reagent on a Spectramax i3X luminometer.
# (§7) EC50 value ranges for exemplary compounds tested in the above assay are given.
# NF-κB pathway = test: Reporter gene expression assay in THP1-Dual cells, NFkB axis (secreted SEAP); type: cell-based, human; conditions: Homo sapiens, 20 hr stimulation, EC50 range class, read-out: THP-NFκB activity
# Method: as §6, §7
# hSTING(R232) = hSTING(R232) (Homo sapiens, UniProt Q86WV6, H232R); test: Luciferase reporter assay in HEK293T-hSTING-Luciferase cells, R232 (wild type) human STING; type: cell-based; conditions: 20 hr stimulation, read-out: R232 human activity (EC50 range)
# Procedure, shortened: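 Clonal HEK293T cells stably expressing STING from a pUNO-1 plasmid plus an ISRE/ISG54-driven secreted luciferase reporter; 5×10^5 cells stimulated with compound for 20 hr. Supernatant luciferase read by luminescence, giving fold-induction over baseline and EC50.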
# hSTING(HAQ) = hSTING(HAQ) (Homo sapiens, UniProt Q86WV6, G230A/H232R/R293Q/R71H); test: Luciferase reporter assay in HEK293T-hSTING-Luciferase cells, HAQ polymorph; type: cell-based; conditions: HAQ polymorph of human STING, EC50 range class
# Source text: as §1, §2, §3, §4, §5
# Sequence of cynomolgus monkey STING protein (A0A2R3XZA6 entry or part of it): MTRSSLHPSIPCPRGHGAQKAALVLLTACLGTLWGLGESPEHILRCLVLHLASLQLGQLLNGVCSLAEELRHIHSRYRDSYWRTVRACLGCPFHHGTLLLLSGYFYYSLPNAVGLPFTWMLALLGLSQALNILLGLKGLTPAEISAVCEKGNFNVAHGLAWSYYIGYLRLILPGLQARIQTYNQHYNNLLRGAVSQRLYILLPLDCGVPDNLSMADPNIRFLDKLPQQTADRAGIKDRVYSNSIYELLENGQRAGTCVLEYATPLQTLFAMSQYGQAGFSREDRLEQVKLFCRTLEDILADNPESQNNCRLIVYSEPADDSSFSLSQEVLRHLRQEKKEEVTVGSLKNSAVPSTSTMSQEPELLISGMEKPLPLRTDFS
# Sequence of hSTING(H232) (Q86WV6 whole entry): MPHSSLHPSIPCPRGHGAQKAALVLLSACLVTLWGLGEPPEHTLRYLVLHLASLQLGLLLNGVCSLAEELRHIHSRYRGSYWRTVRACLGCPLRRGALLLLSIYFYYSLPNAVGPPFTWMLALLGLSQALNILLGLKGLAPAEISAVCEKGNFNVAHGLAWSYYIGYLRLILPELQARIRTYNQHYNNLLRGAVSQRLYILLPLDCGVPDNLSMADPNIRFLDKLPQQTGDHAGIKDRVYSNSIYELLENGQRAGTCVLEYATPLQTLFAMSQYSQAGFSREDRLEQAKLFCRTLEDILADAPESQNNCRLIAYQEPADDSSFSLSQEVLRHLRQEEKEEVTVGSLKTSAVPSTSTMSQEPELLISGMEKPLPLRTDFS
# Sequence of hSTING(R232) (Q86WV6 whole entry H232R): as the sequence (Q86WV6 whole entry) above, with H232R counted along it
# Sequence of hSTING(HAQ) (Q86WV6 whole entry R71H/G230A/H232R/R293Q): as the sequence (Q86WV6 whole entry) above, with R71H, G230A, H232R, R293Q counted along it
EC50 (hSTING(H232)) [nM],EC50 [1] [nM],EC50 (IRF pathway) [nM],EC50 (NF-κB pathway) [nM],EC50 (hSTING(R232)) [nM],EC50 (hSTING(HAQ)) [nM],SMILES
< 1000,< 1000,< 1000,< 1000,< 1000,< 1000,"C[C@H]1c2ccc(C(=O)NCc3c(F)cc(F)cc3F)cc2N(Cc2c(F)cccc2Cl)C(=O)N1C (single isomer, unassigned) [Example 76]"
< 1000,< 1000,< 1000,< 1000,< 1000,< 1000,"Cc1ncc(Cl)c(CN2C(=O)N(C)[C@@H](C)c3ccc(C(=O)NCc4c(F)cc(F)cc4F)cc32)c1F [Example 77, (S)-1-((5-chloro-3-fluoro-2-methylpyridin-4-yl)methyl)-3,4-dimethyl-2-oxo-N-(2,4,6-trifluorobenzyl)-1,2,3,4-tetrahydroquinazoline-7-carboxamide]"
< 1000,< 1000,< 1000,< 1000,< 1000,< 1000,"C[C@H]1c2ccc(C(=O)NCc3c(F)cc(F)cc3F)cc2N(Cc2c(F)cc(O)cc2F)C(=O)N1C [Example 78, (S)-1-(2,6-difluoro-4-hydroxybenzyl)-3,4-dimethyl-2-oxo-N-(2,4,6-trifluorobenzyl)-1,2,3,4-tetrahydroquinazoline-7-carboxamide]"
< 1000,< 1000,1000 to 10000,1000 to 10000,< 1000,< 1000,"C[C@H]1c2ccc(C(=O)NCc3c(F)cc(F)cc3F)cc2N(Cc2c(F)cc(OCCO)cc2F)C(=O)N1C [Example 80, (S)-1-(2,6-Difluoro-4-(2-hydroxyethoxy)benzyl)-3,4-dimethyl-2-oxo-N-(2,4,6-trifluorobenzyl)-1,2,3,4-tetrahydroquinazoline-7-carboxamide]"
< 1000,< 1000,< 1000,< 1000,< 1000,< 1000,"C[C@H]1c2ccc(C(=O)NCc3c(F)cc(F)cc3F)cc2N(Cc2c(F)cc(OCCCO)cc2F)C(=O)N1C [Example 81, (S)-1-(2,6-difluoro-4-(3-hydroxypropoxy)benzyl)-3,4-dimethyl-2-oxo-N-(2,4,6-trifluorobenzyl)-1,2,3,4-tetrahydroquinazoline-7-carboxamide]"
< 1000,< 1000,< 1000,< 1000,< 1000,< 1000,"CC(=O)Nc1ccc(COC(=O)Oc2cc(F)c(CN3C(=O)N(C)[C@@H](C)c4ccc(C(=O)NCc5c(F)cc(F)cc5F)cc43)c(F)c2)cc1 [Example 85, (S)-4-Acetamidobenzyl-(4-((3,4-dimethyl-2-oxo-7-((2,4,6-trifluorobenzyl)carbamoyl)-3,4-dihydroquinazolin-1(2H)-yl)methyl)-3,5-difluorophenyl) carbonate]"
< 1000,< 1000,< 1000,< 1000,< 1000,< 1000,"C[C@H]1c2ccc(C(=O)NCc3c(F)cc(F)cc3F)cc2N(Cc2c(F)ccc(O)c2Cl)C(=O)N1C [Example 87, (S)-1-(2-Chloro-6-fluoro-3-hydroxybenzyl)-3,4-dimethyl-2-oxo-N-(2,4,6-trifluorobenzyl)-1,2,3,4-tetrahydroquinazoline-7-carboxamide]"
< 1000,< 1000,< 1000,< 1000,< 1000,< 1000,"COc1ccc(F)c(CN2C(=O)N(C)[C@@H](C)c3ccc(C(=O)NCc4c(F)cc(F)cc4F)cc32)c1Cl [Example 88, (S)-1-(2-Chloro-6-fluoro-3-methoxybenzyl)-3,4-dimethyl-2-oxo-N-(2,4,6-trifluorobenzyl)-1,2,3,4-tetrahydroquinazoline-7-carboxamide]"
< 1000,< 1000,< 1000,< 1000,< 1000,< 1000,"C[C@H]1c2ccc(C(=O)NCc3c(F)cc(F)cc3F)cc2N(Cc2c(F)ccc(OCCO)c2Cl)C(=O)N1C [Example 137, (S)-1-(2-Chloro-6-fluoro-3-(2-hydroxyethoxy)benzyl)-3,4-dimethyl-2-oxo-N-(2,4,6-trifluorobenzyl)-1,2,3,4-tetrahydroquinazoline-7-carboxamide]"
< 1000,< 1000,< 1000,< 1000,,< 1000,"CC1c2ccc(C(=O)NCc3c(F)cc(F)cc3F)cc2N(Cc2c(O)cccc2F)C(=O)N1C (stereo not drawn) [Example 171, 1-(2-fluoro-6-hydroxybenzyl)-3,4-dimethyl-2-oxo-N-(2,4,6-trifluorobenzyl)-1,2,3,4-tetrahydroquinazoline-7-carboxamide]"
< 1000,< 1000,< 1000,< 1000,,< 1000,"CC1c2ccc(C(=O)NCc3c(F)cc(F)cc3F)cc2N(Cc2c(F)cccc2F)C(=O)N1C (stereo not drawn) [Example 206, 1-(2,6-difluorobenzyl)-3,4-dimethyl-2-oxo-N-(2,4,6-trifluorobenzyl)-1,2,3,4-tetrahydroquinazoline-7-carboxamide]"
< 1000,,1000 to 10000,1000 to 10000,< 1000,< 1000,"C[C@H]1c2ccc(C(=O)NCc3c(F)cc(O)cc3F)cc2N(Cc2c(F)cccc2Cl)C(=O)N1C [Example 252, (S)-1-(2-chloro-6-fluorobenzyl)-N-(2,6-difluoro-4-hydroxybenzyl)-3,4-dimethyl-2-oxo-1,2,3,4-tetrahydroquinazoline-7-carboxamide]"
< 1000,,1000 to 10000,1000 to 10000,< 1000,1000 to 10000,"C[C@H]1c2ccc(C(=O)NCc3c(F)cc(F)cc3F)cc2N(Cc2c(F)cccc2NCCO)C(=O)N1C [Example 264, (S)-1-(2-fluoro-6-((2-hydroxyethyl)amino)benzyl)-3,4-dimethyl-2-oxo-N-(2,4,6-trifluorobenzyl)-1,2,3,4-tetrahydroquinazoline-7-carboxamide hydrochloride]"
< 1000,,< 1000,< 1000,< 1000,< 1000,"C[C@H]1c2ccc(C(=O)NCc3c(F)cc(F)cc3F)cc2N(Cc2c(N)ccc(F)c2F)C(=O)N1C [Example 285, (S)-1-(6-amino-2,3-difluorobenzyl)-3,4-dimethyl-2-oxo-N-(2,4,6-trifluorobenzyl)-1,2,3,4-tetrahydroquinazoline-7-carboxamide]"
< 1000,,< 1000,< 1000,< 1000,< 1000,"COc1cc(F)c(CN2C(=O)N(C)[C@@H](C)c3ccc(C(=O)NCc4c(F)cc(F)cc4F)cc32)c(Cl)c1 [Example 293, (S)-1-(2-chloro-6-fluoro-4-methoxybenzyl)-3,4-dimethyl-2-oxo-N-(2,4,6-trifluorobenzyl)-1,2,3,4-tetrahydroquinazoline-7-carboxamide]"
